The source of these data is patent US10054581B1, “Inhibitors of notch signaling pathway and use thereof in treatment of cancers” (Ecole Polytechnique Federale de Lausanne (EPFL), priority 2011, dated 2018).

“Also recorded” adds a separate entry of the source.

For data set [1], the system named is active form of Notch1 (NICD). The data set can be described thus: NICD Western blot (VAL1744) in DL4:N1 HeLa coculture. Format: cell-based, human. To be noted: DL4- and N1-HeLa coculture, DAPT 10 μM, 24 hours. As for the experimental part:
Cells were lysed in RIPA buffer (50 mM Tris.Cl, pH 7.5, 150 mM NaCl, 1% nonidet P-40, 0.5% sodium deoxycholate and 0.1% SDS) for 30 minutes at 4° C. Lysed cells were centrifuged to remove the debris at 14000 rpm at 4° C. Supernatant was transferred to a new eppendorf tube. The protein concentration was determined by Bradford assay using spectrophotometer (Ultrospec 3000 pro). 40 μg of protein were denatured in 1×SDS gel loading buffer (100 mM Tris.Cl, pH 6.8, 200 mM DTT, 4% SDS, 0.2% bromophenol, 20% glycerol) by heating at 99° C. for 5 minutes. Denatured protein samples were stored on ice until loading on to the acrylamide gel. The samples were run on 8% or 10% acrylamide gel in Tris-glycine electrophoresis buffer (25 mM Tris, 250 mM glycine, 0.1% SDS). […]
For immunoblotting, membranes were blocked with 5% milk and incubated overnight with primary antibodies at 4° C. […] Signal was detected with Super Signal West chemiluminescent substrate (Thermo Scientific, catalog number 34077).
To assess the Notch pathway activation potential of the stable cell lines, DL4 and N1 stable HeLa cells (DL4-HeLa and N1-HeLa, respectively) were cocultured in 1:1 ratio in a 6-well plate and grown to confluency. […] On the other hand, in the absence of ligand (DL4-HeLa cells) or in the presence of GSI (DAPT) NICD levels were not detected, indicating a loss of Notch signalling (data not shown). […]

Data set [2] deals with CUTL1. Put plainly: Annexin V apoptosis, CUTL1. Format: cell-based, human. As to conditions: 10 μM, 7 days. Here is the method: (§1) FIGS. 6A-6D show 6-(4-Tert-Butylphenoxy)Pyridin-3-Amine (I3) induces G0/G1 cell cycle arrest and apoptosis in human T cell acute lymphoblastic leukemia cell lines and human breast cancer cell line HCC1187. […] Percentage of Annexin V positive (apoptotic) cell population was measured using flow cytometry.
(§2) To quantitate the percentage of apoptotic cells, AnnexinV and 7AAD staining was performed. Thymic cells were suspended in 300 μl of 1× AnnexinV binding buffer (BD Biosciences, San Diego, USA) and incubated with 10 μl of AnnexinV-Cy5 antibody and 10 μl of 7AAD (BD Biosciences, San Diego, USA). Samples were incubated for 15 minutes at room temperature. FACS was performed with in one hour of antibody staining.
(§3) This 6-(4-Tert-Butylphenoxy)Pyridin-3-Amine (I3) mediated proliferative arrest could be due to induction of apoptosis or cell cycle arrest during different phases of cell cycle. […] Therefore to further elucidate the mechanisms responsible for 6-(4-Tert-Butylphenoxy)Pyridin-3-Amine (I3) mediated proliferative arrest cell cycle and apoptosis analyses were carried out. […] To investigate cell death, Annexin V staining was performed and proportion of apoptotic (AnnexinV positive) cell population was determined by flow cytometry analyses after 7 days of treatment.

For data set [3], the system named is HPB ALL. Put plainly: Annexin V apoptosis, HPB ALL. Format: cell-based, human. As to conditions: 10 μM, 7 days. As for the experimental part:
as §1, §2, §3

Data set [4] deals with HCC1187. The data set can be described thus: Annexin V apoptosis, HCC1187. Type of data set: cell-based, human. To be noted: 10 μM, 7 days. As for the experimental part:
as §1, §2, §3

A short description of data set [5]: Body weight changes in mice. Type of data set: in vivo, mouse. As to conditions: 25 mg/kg, 5 consecutive days. Here is the method: C57B16 mice were intra peritoneal (i.p) injected with oil or 25 mg/kg of I3 or 10 mg/kg of CPA, once a day for 5-7 days. Mice were weighed using a weighing scale on day 0, day 3 and day 5. On day 8, intestinal tissue, spleen and thymus were harvested for analyses.
In in vitro culture assays, chemical compound 6-(4-Tert-Butylphenoxy)Pyridin-3-Amine (I3) was able to block Notch1 and Notch2 mediated pathway activation. Therefore, Applicants hypothesized that treatment of mice with 6-(4-Tert-Butylphenoxy)Pyridin-3-Amine (I3) may lead to a goblet cell metaplasia of the intestine. To test this hypothesis, mice were intra peritoneally (i.p) injected with 25 mg/kg of 6-(4-Tert-Butylphenoxy)Pyridin-3-Amine (I3) for 7 consecutive days. On day 8, animals were sacrificed and intestinal tissues were fixed and embedded in paraffin. Histological analyses were carried out using Alcian blue to stain for goblet cells. […] Similarly, the effect of 6-(4-Tert-Butylphenoxy)Pyridin-3-Amine (I3) on body weight changes was also monitored. Mice were injected for 5 consecutive days with 25 mg/kg of 6-(4-Tert-Butylphenoxy)Pyridin-3-Amine (I3) and the changes in body mass were recorded.

Data set [6] has as its system MZB cells in the spleen. The data set can be described thus: Marginal Zone B cell development in the spleen (flow cytometry). Format: in vivo, mouse. To be noted: 25 mg/kg, 7 consecutive days, analysed day 8. As for the experimental part: FIGS. 7A-7C show 6-(4-Tert-Butylphenoxy)Pyridin-3-Amine (I3) mimics genetic loss of Notch2 signalling phenotype in the spleen. Loss of Notch signalling in the spleen leads to a reduction in Marginal Zone B cells (MZB) cells in the spleen. […] Spleens were analyzed on day 8. Using B220 specific antibodies, B cells in the spleen were identified. MZB cells within the B cell compartment were detected using antibodies against CD23 and CD21 cell surface markers.
Fluorescence activated cell sorting (FACS) analyses were performed on CyAn™ ADP instrument platform for flow cytometry at Flow cytometry core facility, EPFL. DL4 and Notch1 expression in DL4- and N1-HeLa cells was determined using anti-DL4 and anti-N1 antibodies respectively. T cell development in the thymus was investigated using antibodies against CD4, CD8 and TCRβ. MZB cell development was monitored using antibodies against B220, CD21 and CD23. In brief, a single cell suspension was prepared from thymus and spleen. […]
Applicants hypothesized that 6-(4-Tert-Butylphenoxy)Pyridin-3-Amine (I3) mediated inhibition of Notch2 signalling should lead to a block in MZB cell development in the spleen. MZB cell development was assessed by flow cytometry staining of splenocytes with antibodies directed against B220, CD21 and CD23.

As for `C[C@H](NC(=O)Cc1cc(F)cc(F)c1)C(=O)N[C@H](C(=O)OC(C)(C)C)c1ccccc1` [DAPT, N—[N-(3,5-difluorophenacetyl-Lalanyl)]-(S)-phenylglycine t-butyl ester, reference compound], the “NICD levels (Western blot)” value in data set [1] was “can be blocked by DAPT treatment”.

As to `CC(C)(C)c1ccc(Oc2ccc(N)cn2)cc1` [I3, 6-(4-Tert-Butylphenoxy)Pyridin-3-Amine], the “apoptosis (Annexin V positive cells)” value in data set [2] was “induces significant apoptosis”; in data set [3], “induces significant apoptosis”; in data set [4] it was “induces apoptosis”. Also, the body weight result in data set [5] is reported as “did not cause a loss in the body weight”. Besides, the “absolute numbers of MZB cells in the spleen” value in data set [6] was “loss of MZB cell population in the spleen also reflects in the absolute number of MZB cells; also recorded: causes a reduction the percentage and absolute numbers of MZB cells in the spleen”. Moreover, the “percentage of MZB cells in the spleen” value in data set [6] is “leads to a reduction in the percentage of MZB cell population in the spleen; also recorded: causes a significant reduction in the percentage of MZB cells in the spleen; also recorded: causes a reduction the percentage and absolute numbers of MZB cells in the spleen”.
